{"source": "patent US20110086063A1", "about": "“VACCINES FOR PREVENTION AND TREATMENT OF ADDICTION” (priority 2008, published 2011)", "key": {"[1]": {"experiment": "Stability of cocaine hapten"}, "female rhesus monkeys": {"test_system": "female rhesus monkeys", "experiment": "Cocaine and candy self-administration choice in female rhesus monkeys", "type": "in vivo", "conditions": "representative female monkey; either dose of cocaine available (FIG. 5)", "source_text": "FIG. 5 is a bar graph depicting cocaine and candy self-administration in female rhesus monkeys. The data is presented as a function of cocaine dose available.\nA non-human primate model of intravenous cocaine self-administration will be used to determine if vaccination with Ad-cocaine decreases drug taking, which will likely provide the best predictor of clinical efficacy. To control for nonselective effects, monkeys will be trained to self-administer cocaine and candy, using a choice procedure. If the vaccine is effective at blocking the effects of cocaine, monkeys should decrease the number of cocaine choices self-administered and correspondingly increase the number of candy choices. A non-specific effect would be evidenced by a decrease in both cocaine and candy choices. After all monkeys have been trained to enter the primate chair and respond on the levers for candy, they will have vascular access port surgery (VAP). For self-administration sessions, monkeys will be placed into custom-built primate chairs, moved to the workstation, and connected to the infusion apparatus. Sessions will be conducted five days per week. Monkeys will initially be trained to self-administer 0.1 mg/kg cocaine per infusion. Once responding is stable, the cocaine dose available will be 0.05 mg/kg/infusion. […]"}, "[2]": {"biological_target": "T1, dopamine transporters (DAT) (Macaca mulatta, UniProt Q7JHP9)", "T1 construct": "In rhesus monkeys, doses of 0.1 and 1.0 mg/kg cocaine occupy 53% and 87% of the DAT; host or cells: rhesus monkey brain, in vivo", "T1 sequence (Q7JHP9 1-620)": "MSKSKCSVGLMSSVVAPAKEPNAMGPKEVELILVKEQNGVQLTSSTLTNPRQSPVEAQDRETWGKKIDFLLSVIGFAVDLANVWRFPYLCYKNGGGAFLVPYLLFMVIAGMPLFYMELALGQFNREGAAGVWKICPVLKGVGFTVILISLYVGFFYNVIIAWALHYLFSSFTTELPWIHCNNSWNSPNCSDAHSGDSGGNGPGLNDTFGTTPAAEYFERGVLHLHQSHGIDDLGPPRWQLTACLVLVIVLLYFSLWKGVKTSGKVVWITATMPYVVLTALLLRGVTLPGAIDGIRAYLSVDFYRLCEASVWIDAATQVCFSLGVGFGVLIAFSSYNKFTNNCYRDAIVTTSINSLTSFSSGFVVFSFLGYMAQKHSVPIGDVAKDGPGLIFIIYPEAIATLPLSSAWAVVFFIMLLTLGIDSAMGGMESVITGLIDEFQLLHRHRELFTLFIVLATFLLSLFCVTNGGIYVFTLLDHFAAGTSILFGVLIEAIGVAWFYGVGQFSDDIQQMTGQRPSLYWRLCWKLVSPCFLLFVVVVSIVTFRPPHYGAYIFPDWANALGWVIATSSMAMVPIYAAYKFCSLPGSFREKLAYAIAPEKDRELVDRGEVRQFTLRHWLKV", "conditions": "rhesus monkeys, cited from earlier work"}, "[3]": {"biological_target": "T2, dopamine transporters (DAT) (Homo sapiens, UniProt Q01959)", "T2 construct": "In human cocaine abusers, at least 47% of the DAT needs to be occupied; host or cells: human brain, in vivo", "T2 sequence (Q01959 whole entry)": "as the sequence (Q7JHP9 1-620) above, with M24V, V137I, S194P, G198S, N200D, G201S, P202S counted along it", "conditions": "human cocaine abusers; cited from earlier work"}}, "note": "Read-outs that look alike come from different tables or passages of the source.", "data": [{"compound": "CN1C2CCC1[C@@H](C(=O)NCCCCCC(=O)O)[C@@H](OC(=O)c1ccccc1)C2", "note": "(some centres unmarked) [GNE]", "values": [{"measurement": "stability relative to GNC", "setting": "[1]", "value": "more stable than GNC"}]}, {"compound": "COC(=O)[C@@H]1C2CCC(C[C@@H]1OC(=O)c1ccccc1)N2C", "note": "(some centres unmarked) [cocaine]", "values": [{"measurement": "choice between i.v. cocaine and candy", "setting": "female rhesus monkeys", "value": "exclusively chose cocaine over candy"}, {"measurement": "occupancy of the DAT", "setting": "[2]; 0.1 mg/kg cocaine", "value": 53, "unit": "%"}, {"measurement": "occupancy of the DAT", "setting": "[2]; 1.0 mg/kg cocaine", "value": 87, "unit": "%"}, {"measurement": "DAT occupancy needed to perceive the subjective effects of cocaine", "setting": "[3]", "value": "at least 47%"}]}]}
